The results in this text go back to US9359298B2, “Cajanine structure analogous compound, preparation method and use” (INSTITUTE OF MEDICINAL BIOTECHNOLOGY, CHINESE ACADEMY OF …, priority 2011, dated 2016).

What all share (type): cell-based
Test [1] relates to Influenza A virus (hanfang359/95). The test is described as follows: Determination of anti-influenza virus activity (CPE in MDCK cells). Particulars: for IC50: Influenza A virus, MDCK, 36 h; for anti-influenza virus activities compared with the lead compound cajanine: statement in words.
For a further test, the system named is Coxsackie virus B6. As to the kind of experiment: Coxsackie virus activity assay (CPE in Vero cells). As to conditions: Vero, read-out: COX-B6 IC50, Vero cells, about 100TCID50, CPE, Reed-Muench.
Another test relates to HCV. The test is described as follows: Anti-hepatitis C virus (HCV) activity assay (HCV RNA in Huh7.5 cells). Particulars: for EC50: Hepatitis C virus, Huh7.5, 72 h, Huh7.5 cells, 72 h, HCV RNA by RT-PCR, Reed-Muench, read-out: HCV EC50; for anti-HCV viral activity: statement in words. The protocol: Inoculate Huh7.5 cells into 96-well plates to a density of 3×10^4 cells/cm^2, culture for 24h, infect the cells with 45 IU/cell HCV supernatant, meanwhile, add drug solutions or solvent control for treatment.

A further test relates to HIV-1 III B virus. The test is described as follows: Anti-HIV activity assay (P24 antigen in MT-4 cells). Particulars: for IC50: Human immunodeficiency virus 1, MT4, 96 h, read-out: HIV IC50; for anti-HIV viral activity: statement in words.
The mark [2] stands for this setting: MT-4 cells, HIV-1 III B 100TCID50, 96 h, P24 antigen.

Values after ≈ are worked out from the molar mass of the structure shown. Where two headings read alike, the source gives them in different places.

In the case of `COC(=O)c1c(/C=C/c2ccccn2)cc(OC)c(CC=C(C)C)c1O` [Compound 8t, methyl 2-hydroxy-3-isopentenyl-4-methoxy-6-[(E)-2-(pyrid-2-yl)ethenyl]benzoate], the IC50 in test [1] is 0.12 µg/mL (≈ 0.34 µM); in the test with Coxsackie virus B6 it was 1.32 µg/mL (≈ 3.73 µM); in the test with HIV-1 III B virus (setting [2]) it was 0.6 µg/mL (≈ 1.7 µM). The half-maximal effective concentration (EC50) in the test on HCV was determined as 0.64 µg/mL (≈ 1.81 µM). For the same molecule, the “anti-HCV viral activity” value with HCV is listed as “stronger anti-HIV, HCV viral activities”. Also, the “anti-HIV viral activity” value with HIV-1 III B virus is “stronger anti-HIV, HCV viral activities”.

Take `COC(=O)c1c(/C=C/c2cc(OC)c(OC)c(OC)c2)cc(OC)c(CC=C(C)C)c1O` [Compound 8u, methyl 2-hydroxy-3-isopentenyl-4-methoxy-6-[(E)-(3,4,5-trimethoxy-styryl)]benzoate]: the IC50 in test [1] amounted to 0.11 µg/mL (≈ 0.249 µM); in the test on Coxsackie virus B6, 1.65 µg/mL (≈ 3.73 µM); with HIV-1 III B virus (setting [2]), 1.49 µg/mL (≈ 3.37 µM). Moreover, the EC50 in the test on HCV amounted to 0.67 µg/mL (≈ 1.51 µM). In addition, the “anti-HCV viral activity” value with HCV was “stronger anti-HIV, HCV viral activities”. Also, the “anti-HIV viral activity” value in the test on HIV-1 III B virus is on record as “stronger anti-HIV, HCV viral activities”.

Turning to `COC(=O)c1c(/C=C/c2cc(OC)ccn2)cc(OC)c(CC=C(C)C)c1O` [Compound 8v, methyl 2-hydroxy-3-isopentenyl-4-methoxy-6-[(E)-2-(4-methoxypyrid-2-yl)ethenyl]benzoate], the IC50 in test [1] turned out to be 0.87 µg/mL (≈ 2.27 µM); with Coxsackie virus B6, 2.68 µg/mL (≈ 6.99 µM); with HIV-1 III B virus (setting [2]), 1.01 µg/mL (≈ 2.63 µM). The EC50 in the test with HCV is 2.39 µg/mL (≈ 6.23 µM). Besides, in the test with HCV, the “anti-HCV viral activity” value was “stronger anti-HIV, HCV viral activities”. Moreover, in the test on HIV-1 III B virus, the “anti-HIV viral activity” value is recorded as “stronger anti-HIV, HCV viral activities”.

As for `COC(=O)c1c(/C=C/c2ccccc2)cc(OC)c(CC=C(C)C)c1OC(=O)CN` [Compound 24a], the IC50 in test [1] worked out at 2.31 µg/mL (≈ 5.64 µM); with Coxsackie virus B6 it was 3.21 µg/mL (≈ 7.84 µM); with HIV-1 III B virus (setting [2]), 1.79 µg/mL (≈ 4.37 µM). Further, the EC50 with HCV came out at 0.98 µg/mL (≈ 2.39 µM).

Consider `COc1cc(/C=C/c2ccccc2)cc(OC(=O)CN)c1CC=C(C)C` [Compound 24c, 2-isopentenyl-3-aminoacetoxy-5-[(E)styryl]anisole], for which the figures for the IC50 (in test [1]; in the test on Coxsackie virus B6; in the test with HIV-1 III B virus (setting [2])) were 1.24 µg/mL (≈ 3.53 µM), 0.98 µg/mL (≈ 2.79 µM) and 2.78 µg/mL (≈ 7.91 µM), respectively. The EC50 in the test with HCV amounted to 0.94 µg/mL (≈ 2.67 µM).

Consider `COC(=O)c1c(/C=C/c2ccccc2)cc(OC)c(CC=C(C)C)c1OC(=O)C1CCCN1` (centres unmarked) [Compound 24d], for which the figures for the IC50 (in test [1]; in the test on Coxsackie virus B6; with HIV-1 III B virus (setting [2])) were 0.12 µg/mL (≈ 0.267 µM), 0.45 µg/mL (≈ 1 µM) and 0.81 µg/mL (≈ 1.8 µM), respectively. Further, the concentration for a half-maximal effect (EC50) in the test with HCV stood at 0.87 µg/mL (≈ 1.94 µM).

`COc1cc(/C=C/c2ccccc2)cc(OC(=O)C2CCCN2)c1CC=C(C)C` (centres unmarked) [Compound 24f]: the IC50 came to 0.13 µg/mL (≈ 0.332 µM) in test [1], 0.21 µg/mL (≈ 0.536 µM) in the test with Coxsackie virus B6 and 1.01 µg/mL (≈ 2.58 µM) in the test on HIV-1 III B virus (setting [2]). Further, the “anti-influenza virus activities compared with the lead compound cajanine” value in test [1] is reported as “significantly stronger than the lead compound cajanine”. The EC50 in the test with HCV was found to be 0.69 µg/mL (≈ 1.76 µM).

Take `COC(=O)c1c(/C=C/c2ccccc2)cc(OC)c(CC=C(C)C)c1OC(C)=O` [Compound 24g, methyl 2-acetoxy-3-isopentenyl-4-methoxy-6-[(E)-styryl]benzoate]: the half-maximal inhibitory concentration (IC50) is 0.25 µg/mL (≈ 0.634 µM) in test [1], 1.65 µg/mL (≈ 4.18 µM) in the test on Coxsackie virus B6 and 0.33 µg/mL (≈ 0.837 µM) in the test with HIV-1 III B virus (setting [2]). In addition, in test [1], the “anti-influenza virus activities compared with the lead compound cajanine” value is reported as “significantly stronger than the lead compound cajanine”. Also, the EC50 in the test with HCV was found to be 0.83 µg/mL (≈ 2.1 µM).

`COc1cc(/C=C/c2ccccc2)cc(OC(C)=O)c1CC=C(C)C` [Compound 24i]: the IC50 was 0.15 µg/mL (≈ 0.446 µM) in test [1], 0.92 µg/mL (≈ 2.73 µM) with Coxsackie virus B6 and 2.09 µg/mL (≈ 6.21 µM) in the test with HIV-1 III B virus (setting [2]). In test [1], the “anti-influenza virus activities compared with the lead compound cajanine” value is on record as “significantly stronger than the lead compound cajanine”. Moreover, in the test on HCV, the concentration for a half-maximal effect (EC50) is 0.99 µg/mL (≈ 2.94 µM).

With `COC(=O)c1c(/C=C/c2ccccc2)cc(OC)c(CC=C(C)C)c1OC(=O)c1cccnc1` [Compound 24j, 2-(pyridyl-3-formylox)-3-isopentenyl-4-methoxy-6-[(E)-styryl]-benzoate], the figures for the IC50 (in test [1]; with Coxsackie virus B6; in the test on HIV-1 III B virus (setting [2])) were 2.36 µg/mL (≈ 5.16 µM), 3.61 µg/mL (≈ 7.89 µM) and 2.65 µg/mL (≈ 5.79 µM), respectively. Moreover, the 50% effective concentration (EC50) in the test on HCV was 1.35 µg/mL (≈ 2.95 µM).

For `COc1cc(/C=C/c2ccccc2)cc(OC(=O)c2cccnc2)c1CC=C(C)C` [Compound 24l, 2-isopentenyl-3-(pyridyl-3-formyloxy)-5-[(E)-styryl]anisole], the IC50 in test [1] turned out to be 1.04 µg/mL (≈ 2.6 µM); in the test on Coxsackie virus B6, 0.95 µg/mL (≈ 2.38 µM); in the test with HIV-1 III B virus (setting [2]), 1.4 µg/mL (≈ 3.5 µM). In addition, in the test on HCV, the EC50 was 1.6 µg/mL (≈ 4.01 µM).

With `COC(=O)c1c(/C=C/c2ccccc2)cc(OC)c(CC=C(C)C)c1OC(=O)CN(C)C` [Compound 24m, 2-(N,N-dimethylacetyloxy)-3-isopentenyl-4-methoxy-6-[(E)-styryl]benzoate], the half-maximal inhibitory concentration (IC50) in test [1] turned out to be 6.52 µg/mL (≈ 14.9 µM); in the test on Coxsackie virus B6 it was 3.46 µg/mL (≈ 7.91 µM); in the test with HIV-1 III B virus (setting [2]) it was 2.6 µg/mL (≈ 5.94 µM). Also, the EC50 with HCV came out at 0.8 µg/mL (≈ 1.83 µM).

Take `COc1cc(/C=C/c2ccccc2)cc(OC(=O)CN(C)C)c1CC=C(C)C` [Compound 24o, 2-isopentenyl-3-(N,N-dimethylacetoxy)-5-[(E)-styryl]anisole]: the IC50 in test [1] came to 2.31 µg/mL (≈ 6.09 µM); in the test with Coxsackie virus B6, 1.21 µg/mL (≈ 3.19 µM); in the test with HIV-1 III B virus (setting [2]), 0.69 µg/mL (≈ 1.82 µM). The EC50 in the test with HCV came out at 1.34 µg/mL (≈ 3.53 µM).

With `COC(=O)c1c(/C=C/c2ccccc2)cc(OC)c(CC=C(C)C)c1OC(=O)c1cnc[nH]1` [Compound 24p], the IC50 in test [1] was 1.32 µg/mL (≈ 2.96 µM); in the test on Coxsackie virus B6, 2.36 µg/mL (≈ 5.29 µM); in the test on HIV-1 III B virus (setting [2]) it was 0.31 µg/mL (≈ 0.694 µM). Besides, in the test on HCV, the EC50 amounted to 0.77 µg/mL (≈ 1.72 µM).

In the case of `COc1cc(/C=C/c2ccccc2)cc(OC(=O)c2cnc[nH]2)c1CC=C(C)C` [Compound 24r], the figures for the half-inhibitory concentration (IC50) (in test [1]; in the test on Coxsackie virus B6; with HIV-1 III B virus (setting [2])) were 0.98 µg/mL (≈ 2.52 µM), 0.68 µg/mL (≈ 1.75 µM) and 2.31 µg/mL (≈ 5.95 µM), respectively. In the test with HCV, the EC50 worked out at 1.05 µg/mL (≈ 2.7 µM).

For the molecule `COC(=O)c1c(/C=C/c2ccccc2)cc(OC)c(CC=C(C)C)c1OCN` [Compound 26a], the results for the 50% inhibitory concentration (IC50) (in test [1]; in the test on Coxsackie virus B6; in the test with HIV-1 III B virus (setting [2])) were 2.31 µg/mL (≈ 6.06 µM), 6.54 µg/mL (≈ 17.1 µM) and 1.73 µg/mL (≈ 4.54 µM), respectively. Also, the concentration giving a half-maximal response (EC50) in the test on HCV was found to be 2.09 µg/mL (≈ 5.48 µM).

In the case of `COc1cc(/C=C/c2ccccc2)cc(OCN)c1CC=C(C)C` [Compound 26c, 2-isopentenyl-3-aminomethoxy-5-[(E)-styryl]anisole], the 50% inhibitory concentration (IC50) in test [1] turned out to be 1.35 µg/mL (≈ 4.17 µM); in the test on Coxsackie virus B6 it was 2.64 µg/mL (≈ 8.16 µM); with HIV-1 III B virus (setting [2]), 3.18 µg/mL (≈ 9.83 µM). Moreover, the EC50 in the test on HCV is 2.07 µg/mL (≈ 6.4 µM).

Consider `COC(=O)c1c(/C=C/c2ccccc2)cc(OC)c(CC=C(C)C)c1OCC1CNCCN1` (centres unmarked) [Compound 26d, methyl 2-(piperazin-2-yl)methoxy-3-isopentenyl-4-methoxy-6-[(E)-styryl]benzoate], for which the concentration for half-maximal inhibition (IC50) came to 1.36 µg/mL (≈ 3.02 µM) in test [1], 2.75 µg/mL (≈ 6.1 µM) in the test with Coxsackie virus B6 and 1.36 µg/mL (≈ 3.02 µM) in the test with HIV-1 III B virus. The 50% effective concentration (EC50) in the test with HCV stood at 1.53 µg/mL (≈ 3.4 µM).

`COc1cc(/C=C/c2ccccc2)cc(OCC2CNCCN2)c1CC=C(C)C` (centres unmarked) [Compound 26f, 2-isopentenyl-3-(piperazin-2-yl)methoxy-5-[(E)-styryl]anisole]: the IC50 in test [1] turned out to be 0.68 µg/mL (≈ 1.73 µM); with Coxsackie virus B6, 0.98 µg/mL (≈ 2.5 µM); with HIV-1 III B virus (setting [2]), 1.61 µg/mL (≈ 4.1 µM). In addition, the “anti-influenza virus activities compared with the lead compound cajanine” value in test [1] is “significantly stronger than the lead compound cajanine”. In addition, the EC50 in the test on HCV turned out to be 1.39 µg/mL (≈ 3.54 µM).

In turn, `CCOC(=O)C1=C[C@@H](OC(CC)CC)[C@H](NC(C)=O)[C@@H](N)C1` [Oseltamivirphosphate, reference compound] returned an IC50 in test [1] of 0.22 µg/mL (≈ 0.704 µM).

In the case of `NC(=O)c1ncn([C@@H]2O[C@H](CO)[C@@H](O)[C@H]2O)n1` [RBV, Ribavirin, reference compound], the IC50 in test [1] turned out to be 0.59 µg/mL (≈ 2.42 µM); in the test with Coxsackie virus B6, 412 µg/mL (≈ 1690 µM).
